Measurements as given in US20240269145A1, “USE OF INDOLE COMPOUND AS INHIBITORS OF FERROPTOSIS” (MITOIMMUNE THERAPEUTICS INC., priority 2023, published 2024).

Legend:
Format in all cases: cell-based
[1] = system: ARPE-19; experiment: Cell death protection, LDH release after RSL3; details: ARPE-19, RSL3 0.3 μM, 24 hours
Procedure: (§1) To confirm the protective effect on cardiac cells, adrenal medulla cells, renal fibroblasts, retinal epithelial cells, lung epithelial cells, renal proximal tubule epithelial cells, hippocampal neurons, and fibroblasts, 4×10^3 to 1.2×10^4 cells of each cell type were dispensed into 96-well plates and cultured for 18 to 24 hours. Each well was treated with the example compound, which was diluted so that the final concentration became 0.001, 0.003, 0.01, 0.03, 0.1, 0.3, 1, 3, and 10 μM, and culture was performed for 15 to 20 minutes. […] To confirm the cell protecting effect of the example compounds, a cytotoxicity LDH assay kit [Dojindo; CK12] was used to measure the level of extracellular secretion of lactate dehydrogenase (LDH). Briefly, at the time point when the 24-hour treatment of each cell type with RSL3 ended, 70 μL of each supernatant from cell culture medium was taken and transferred to a new 96-well plate. After adding 70 μL/well (the same amount as the sample) of the assay buffer included in the kit, the resulting mixture was wrapped with foil and allowed to react at room temperature for 15 to 20 minutes. After observing the color change of the sample, 35 μL/well of a stop solution was added, and the absorbance value at 490 nm was measured using an iD3 spectrophotometer to calculate the EC50 value.
(§2) Table 3. Effect of protecting cardiac cells, adrenal medulla cells, renal fibroblasts, retinal epithelial cells, lung epithelial cells, renal proximal tubule epithelial cells, hippocampal neurons, and fibroblasts against cell death induced by RSL3.

[2] = system: H9C2; experiment: Cell death protection, LDH release after RSL3; details: H9C2, RSL3 0.5 μM, 24 hours
Procedure: as §1, §2

[3] = system: HK-2; experiment: Cell death protection, LDH release after RSL3; details: HK-2, RSL3 0.3 μM, 24 hours
Procedure: as §1, §2

[4] = system: HT-22; experiment: Cell death protection, LDH release after RSL3; details: HT-22, RSL3 0.3 μM, 24 hours
Procedure: as §1, §2

[5] = system: MLE-12; experiment: Cell death protection, LDH release after RSL3; details: 24 hours
Procedure: as §1, §2

[6] = system: NIH/3T3; experiment: Cell death protection, LDH release after RSL3; details: 24 hours
Procedure: as §1, §2

[7] = system: NRK-49F; experiment: Cell death protection, LDH release after RSL3; details: RSL3 3 μM, 24 hours
Procedure: as §1, §2

[8] = system: PC-12; experiment: Cell death protection, LDH release after RSL3; details: PC-12, RSL3 0.3 μM, 24 hours
Procedure: as §1, §2

[9] = system: MLE-12 cells; experiment: Mitochondrial ROS (MitoSOX) after RSL3; details: MLE-12, 1 μM RSL3, 2 hours
Procedure: To confirm the protective effect against mitochondrial reactive oxygen species in lung epithelial cells, 2×10^5 MLE-12 cells were dispensed into each well of a 12-well plate and cultured for 18 to 24 hours. Each well was treated with Example Compound 1 and ferrostatin-1, which were diluted so that their final concentration became 0.01, 0.1, 1, and 10 μM, and culture was performed for 15 minutes. Afterwards, the cells were treated so that the final concentration of RSL3 became 1 μM, and cultured for 2 hours. To confirm the inhibitory effect against mitochondrial reactive oxygen species, MitoSOX™ mitochondrial superoxide indicators (mitochondrial oxidative stress indicator) (MitoSOX) [Invitrogen™; C6827] was used. According to the manufacturer's experimental method, MitoSOX was diluted in the cell culture medium so that the final concentration became 5 μM, and the cells were treated therewith and allowed to react for 30 minutes to perform fluorescent staining. The MLE-12 cells fluorescently stained with MitoSOX were detached from the 12-well plate using 0.25% Trypsin-EDTA and transferred to a microtube, and the fluorescence (excitation/absorption ˜396 nm/610 nm) was measured using BD FACSLyric™ to calculate the rate of change compared to the control group (RSL3 untreated group).

[10] = system: PC-12 cells; experiment: Cytosolic iron ion accumulation (FerroOrange, images) after RSL3; details: PC-12, 0.3 μM RSL3, 1 hour; Example Compound 1 1 μM, DFO 10 or 100 μM
Procedure: To confirm the inhibitory effect against cytosolic iron ion accumulation in adrenal medulla cells and cardiac cells, 3×10^5 PC-12 cells and H9C2 cells were each dispensed into a 35 mm confocal dish and cultured for 18 to 36 hours. Each well was treated with the Example Compound 1, which was diluted so that the final concentration became 1 μM, and with DFO, which was diluted so that the final concentration became 10 µM and 100 μM, and culture was performed for 20 to 30 minutes. Afterwards, the PC-12 cells and H9C2 cells were each treated with RSL3 and erastin so that their final concentration became 0.3 µM and 1 μM, respectively, and cultured for 1 hour and 7 hours. To confirm the inhibitory effect against cytosolic iron ion accumulation, FerroOrange [DOJINDO; F374] was used. According to the manufacturer's experimental method, FerroOrange was diluted in the cell culture medium so that the final concentration became 1 μM, and the cells were treated therewith. […] The cells fluorescently stained with FerroOrange were observed using a fluorescence microscope [Carl Zeiss; Axio Observer 7] to investigate the change in fluorescence (excitation/absorption 580 nm/543 nm) compared to the control group (RSL3 and erastin untreated group).

[11] = system: MLE-12 cells; experiment: Mitochondrial iron ion accumulation (Mito-FerroGreen, images) after RSL3; details: MLE-12, RSL3 1 μM, 1 hour 30 minutes; Example Compound 1 1 μM, DFO 10 μM
Procedure: (§3) Experimental Example 9-1: To confirm the inhibitory effect against mitochondrial iron ion accumulation in lung epithelial cells and adrenal medulla cells, 3×10^5 MLE-12 cells and PC-12 cells were each dispensed into a confocal dish and cultured for 18 to 24 hours. Each well was treated with Example Compound 1 and DFO, which were diluted so that their final concentration became 1 μM and 10 μM, respectively, and culture was performed for 20 minutes. Afterwards, the MLE-12 cells were treated with RSL3 so that the final concentration became 1 μM, and cultured for 1 hour and 30 minutes, and the PC-12 cells were treated with RSL3 so that the final concentration became 0.3 μM, and cultured for 30 minutes. To confirm the inhibitory effect against mitochondrial iron ion accumulation, Mito-FerroGreen [DOJINDO; M489] was used. According to the manufacturer's experimental method, Mito-FerroGreen was diluted in the cell culture medium so that the final concentration became 1 μM, and the cells were treated therewith and allowed to react for 30 minutes to perform fluorescent staining. The cells fluorescently stained with Mito-FerroGreen were observed using a fluorescence microscope [Carl Zeiss; Axio Observer 7] to investigate the change in fluorescence (excitation/absorption 450 to 490 nm/500 to 550 nm) compared to the control group (RSL3 untreated group).

[12] = system: PC-12 cells; experiment: as above; details: PC-12, RSL3 0.3 μM, 30 minutes; Example Compound 1 1 μM, DFO 10 μM
Procedure: as §3

Row | Structure (SMILES) | EC50 ([1]; Homo sapiens) [µM] | EC50 ([2]; Rattus norvegicus) [µM] | EC50 ([3]; Homo sapiens) [µM] | EC50 ([4]; Mus musculus) [µM] | EC50 ([5]; MLE12, MLE-12, RSL3 1 μM) [µM] | EC50 ([6]; Mus musculus, NIH3T3, NIH/3T3, RSL3 3 μM) [µM] | EC50 ([7]; Rattus norvegicus) [µM] | EC50 ([8]; Rattus norvegicus) [µM] | concentration at which mitochondrial reactive oxygen species were significantly decreased [9] [µM] | cytosolic iron ion accumulation (images) [10] | mitochondrial iron ion accumulation (images) [11] | mitochondrial iron ion accumulation (images) [12] | EC50 [1] [µM] | EC50 [2] [µM] | EC50 [3] [µM] | EC50 [4] [µM] | EC50 ([5]; MLE-12, RSL3 1 μM) [µM] | EC50 ([6]; NIH/3T3, RSL3 3 μM) [µM] | EC50 [7] [µM] | EC50 [8] [µM]
1 | O=S1(=O)CCN(Cc2cc(NC3CCOCC3)c3[nH]c(-c4ccccc4)cc3c2)CC1 [Example 1, 5-[(1,1-dioxido-4-thiomorpholinyl)methyl]-2-phenyl-N-(tetrahydro-2H-pyran-4-yl)-1H-indole-7-amine] | ≤ 0.03 | 0.03 to 0.1 | ≤ 0.03 | ≤ 0.03 | ≤ 0.03 | 0.03 to 0.1 | ≤ 0.03 | 0.03 to 0.1 | 0.1 | decrease was confirmed | decrease was confirmed | decrease was confirmed |  |  |  |  |  |  |  | 
2 | CCOC(=O)c1ccc(NC2CCCCC2)c(N)c1 [Fer-1, ferrostatin-1, reference compound] |  |  |  |  |  |  |  |  | 0.1 |  |  |  | 0.03 to 0.1 | 0.03 to 0.1 | 0.03 to 0.1 | 0.03 to 0.1 | 0.03 to 0.1 | 0.03 to 0.1 | 0.03 to 0.1 | 0.03 to 0.1
